Reference: paper PMC7571160, “Dibromopinocembrin and Dibromopinostrobin Are Potential Anti-Dengue Leads with Mild Animal Toxicity” (Molecules, 2020)
Like-named read-outs stand apart in the source and are kept apart here.

Tests used:
[1] = tested on: dengue virus serotype 2 (DENV2), New Guinea C strain; test: DENV2 NGC effective concentration (EC50) test in LLC/MK2 cells, plaque titration; type: cell-based; details: for EC50: Dengue virus, DENV2 NGC in LLC/MK2 cells, MOI 0.1, 72 h, plaque titration; for SI NGC (CC50/EC50): LLC/MK2 CC50 / DENV2 NGC EC50
Procedure: (§1) LLC/MK2 were seeded at 5 × 10^4 cells per well of 24-well plate in growth medium and incubated overnight at 37 °C under 5% CO2. Cells were infected with DENV2 NGC at the multiplicity of infection (MOI) of 0.1 for 1 h with gentle rocking every 15 min. Cells were washed with PBS and incubated with MEM supplemented with 1% fetal bovine serum, 100 I.U./mL penicillin, and 100 μg/mL streptomycin. The compound was added to the virus-infected cells during and after infection. The cells were incubated for 72 h, unless otherwise indicated, at 37 °C under 5% CO2. Supernatants were collected and the viral infectivity was analyzed by 96-well plaque titration. Data were plotted and the EC50 values were calculated by nonlinear regression analysis. Each concentration was tested in duplicate and the results were reported as the means and standard deviation of three independent experiments. The selectivity index was calculated from the ratio of CC50 and EC50. Moreover, additional EC50s of TH002 and TH011 were also taken from Huh-7 (8 × 10^4 cells) and DENV2 16,681 (MOI of 1). Supernatants were collected after 72 h incubation for plaque titration EC50 values were calculated by nonlinear regression analysis. Data were presented by means and standard errors of three independent experiments.

[2] = tested on: DENV2 16681; test: DENV2 16681 EC50 test in Huh-7 cells, plaque titration; type: cell-based, dengue virus serotype 2; details: for EC50: Dengue virus, DENV2 16681 in Huh-7 cells, MOI 1, 72 h, plaque titration; for SI (16681) (CC50/EC50): Huh-7 CC50 / DENV2 16681 EC50
Procedure: as §1

[3] = Cytotoxic concentration (CC50) test, MTS, LLC/MK2; type: cell-based, Macaca mulatta (rhesus monkey); details: rhesus monkey, LLC/MK2 cells
Procedure: (§2) LLC/MK2, THP-1, HEK-293, HepG2, or Huh-7 cells were seeded at 10^4 cells per well of 96-well plate and incubated overnight. Compounds were prepared to 6-10 different concentrations in filter-sterilized dimethylsulfoxide (Merck®, Darmstadt, Germany) before addition to the cells. The plates were incubated for 48 h before the MTS reagent (Promega®, Madison, WI, USA) was added to cells according to the manufacturer's protocol and incubated for 4 h before analysis by spectrophotometry at […]. Huh-7 cytotoxicity was assessed by the Alamar Blue assay (Invitrogen®, Waltham, MA, USA) and read by fluorometry at the excitation and emission wavelengths at 570 and 600 nm, respectively. Each compound was tested in triplicate. Cytotoxic concentrations (CC50) were calculated while using non-linear regression analysis and the results were reported as means and standard deviation of three independent experiments.

[4] = Cytotoxic concentration (CC50) test, MTS, THP-1; type: cell-based; details: human, THP-1 cells, THP-1, 48 h
Procedure: as §2

[5] = Cytotoxic concentration (CC50) test, MTS, HEK-293; type: cell-based; details: human, HEK-293 cells, HEK-293, 48 h
Procedure: as §2

[6] = Cytotoxic concentration (CC50) test, MTS, HepG2; type: cell-based; details: human, HepG2 cells, HepG2, 48 h
Procedure: as §2

[7] = Cytotoxic concentration (CC50) test, Alamar Blue, Huh-7; type: cell-based; details: human, Huh-7 cells; Huh-7, Alamar Blue
Procedure: as §2

[8] = tested on: C57BL/6 mice; test: Animal toxicity study, intravenous administration; type: in vivo, mouse; details: 10 mg/kg intravenous
Procedure: The animal care and use protocol identification number 016-2562 was approved by the Institutional Animal Care and Use Committee (CU-ACUP) of the Faculty of Medicine, Chulalongkorn University, Bangkok, Thailand, based on the National Institutes of Health, USA’s criteria for the use and treatment of laboratory animals. Male 8-week-old C57BL/6 mice purchased from the National Laboratory Animal Center, Nakhornpathom, Thailand were used in the experiments. TH011 and TH002 were diluted with 10% DMSO in normal saline solution. The preparations were intravenously administered at the concentration of 10 mg/kg through a tail vein (n = 5/group). The 10% DMSO in normal saline solution was used as vehicle control. Blood were collected through tail vein nicking at day one, three, and eight after administration and the serum samples were kept at −80 °C until analysis. Renal function (serum creatinine; Scr) and liver function (serum alanine transaminase; ALT) were measured by colorimetric assays while using QuantiChromTM (DICT-500, BioAssay, Hayward, CA, USA) and EnzyChrom (EALT-100, BioAssay), respectively.

[9] = tested on: DENV envelope-induced fusion; test: Fusion inhibition study in C6/36 cells; type: cell-based, dengue virus serotype 2; details: 10 µM, DENV2 NGC-infected C6/36 cells, 0.5 M MES pH 5.5
Procedure: C6/36 were seeded at 1 × 10^5 cells per well of 24-well plate MEM that was supplemented with 10% FBS and incubated overnight at 28 °C. Cells were infected with the virus at the multiplicity of infection (MOI) of 1 for 1 h at 28 °C. Compounds TH002 and TH011 were diluted in DMSO and added to the infected cells to the final concentration of 10 µM in 1% DMSO after DENV2 NGC (M.O.I. of 1) infection. Cells were incubated with MEM supplemented with 1% fetal bovine serum for 48 h before the addition of 0.5 M MES. Cells were incubated for an additional 24–48 h at 28 °C until the fused cells were visualized under light microscope.
Figure S5. Fusion inhibition assay; TH002 and TH011 (10 µM) were incubated with the DENV2-infected cells for
2 days before addition of 0.5 M MES, pH 5.5. The 4G2 antibody was an inhibitor of DENV envelope fusion and
was used as a control. Pos and Neg were abbreviated from positive (DENV) and negative (media-only) controls,
(1 picture or pasted object on this page, not shown here)

[10] = Solubility observations in culture media and vehicles; type: physicochemical; details: for Dissolution in culture media, DMSO and NSS: data not shown; for Concentration above which compound was only partially dissolved: cell culture test conditions
[11] = tested on: DENV NS3 protease; details: cited from earlier work
[12] = tested on: dengue virus serotype 2 (DENV2), New Guinea C strain; set-up: method as in Srivarangkul et al. 2018 [11]; details: ref Srivarangkul et al. 2018 [11]; read-out: DENV2 NGC EC50; cited from earlier work
[13] = tested on: LLC/MK2 cells; set-up: method as in Srivarangkul et al. 2018 [11]; details: ref Srivarangkul et al. 2018 [11]; cited from earlier work
[14] = tested on: Zika viruses; set-up: method as in PMID 30959074; details: read-out: Zika virus EC50; cited from earlier work
[15] = tested on: DENV NS5 polymerase; set-up: method as in PMID 22050318; details: cited from earlier work
[16] = set-up: method as in PMID 25744566; details: rat, intravenous, 10 mg, single dose; cited from earlier work
[17] = set-up: method as in PMID 25744566; details: human, 20 mg, iv drip; cited from earlier work
[18] = tested on: DENV2; set-up: method as in PMID 29360474; details: cited from earlier work
[19] = tested on: DENV 4; set-up: method as in PMID 29360474; details: read-out: DENV4 EC50; cited from earlier work

## O=C1CC(c2ccccc2)Oc2c(Br)c(O)c(Br)c(O)c21 (stereo not drawn) [TH011, 6,8-dibromo-5,7-dihydroxyflavanone]
[1]
  EC50: 2.06 ± 0.754 µM
  SI NGC (CC50/EC50): 32.5621
[2]
  EC50: 4.59 µM
  SI (16681) (CC50/EC50): (10.5201)
[3]
  CC50 at 48 h: 67.2 ± 0.973 µM
[4]
  CC50 at 48 h: > 100 µM
[5]
  CC50 at 48 h: 93.2 ± 5.99 µM
[6]
  CC50 at 48 h: > 100 µM
[7]
  CC50 at 48 h: 48.3 ± 4.11 µM
[8]; day 1 and 3
  ALT levels (hepatotoxicity): not obviously seen
[9]
  Inhibition of DENV envelope-induced fusion under acidic pH: no fusion inhibition observed
[10]
  Dissolution in culture media, DMSO and NSS: completely dissolved

## COc1cc2c(c(O)c1I)C(=O)CC(c1ccccc1)O2 (stereo not drawn) [TH018, 6-iodo-5-hydroxy-7-methoxyflavanone]
[1]
  EC50: 4.1 ± 1.84 µM
  SI NGC (CC50/EC50): >6.0945
[3]
  CC50 at 48 h: > 25 µM
[10]
  Concentration above which compound was only partially dissolved: > 25 µM

## COc1cc(O)c2c(c1)O[C@H](c1ccccc1)CC2=O [TH019, pinostrobin]
[1]
  EC50: 10.8 ± 1.63 µM
  SI NGC (CC50/EC50): 7.3242
[3]
  CC50 at 48 h: 78.8 ± 2.92 µM
[11]
  DENV NS3 protease IC50: 90.48 µg/mL
  Ki: 345 ± 70 µM

## COc1c(Br)c(O)c2c(c1Br)OC(c1ccccc1)CC2=O (stereo not drawn) [TH002, 6,8-dibromo-5-hydroxy-7-methoxyflavanone]
[1]
  EC50: 5.86 ± 0.507 µM
  SI NGC (CC50/EC50): >17.0745,
[2]
  EC50: 3.19 µM
  SI (16681) (CC50/EC50): (23.9342)
[3]
  CC50 at 48 h: > 100 µM
[4]
  CC50 at 48 h: 51.8 ± 2.3 µM
[5]
  CC50 at 48 h: > 100 µM
[6]
  CC50 at 48 h: 49.9 ± 2.7 µM
[7]
  CC50 at 48 h: 76.4 ± 7.2 µM
[8]; day 1 and 3
  ALT levels (hepatotoxicity): mildly elevated
[8]; day 8
  ALT levels (hepatotoxicity): decreased to normal
[9]
  Inhibition of DENV envelope-induced fusion under acidic pH: no fusion inhibition observed
[10]
  Dissolution in culture media, DMSO and NSS: completely dissolved

## O=C1CC(c2ccccc2)Oc2cc(O)cc(O)c21 (stereo not drawn) [TH022, 5,7-dihydroxyflavanone]
[1]
  SI NGC (CC50/EC50): >6.47
[12]
  EC50: 15.5 µM
[13]
  CC50: > 100 µM
[14]
  EC50: 17.4 µM
[11]
  DENV NS3 protease IC50: 286.90 µg/mL
[15]
  Inhibition of DENV NS5 polymerase activity: not inhibit
[16]
  half-life: 12 to 14 min
[17]
  half-life: 47 min

## COc1cc2c(c(O)c1C)C(=O)CC(c1ccccc1)O2 (stereo not drawn) [6-methylpinostrobin]
[18]
  EC50: 16 ± 5.38 µM
[19]
  EC50: 11.7 ± 6.04 µM

## COc1c(I)c(O)c2c(c1I)OC(c1ccccc1)CC2=O (stereo not drawn) [TH012, 6,8-diiodo-5-hydroxy-7-methoxyflavanone]
[1]
  EC50: 2.8 ± 1.55 µM
  SI NGC (CC50/EC50): >3.5714
[3]
  CC50 at 48 h: > 10 µM
[10]
  Concentration above which compound was only partially dissolved: exceeded 10 µM
